In patent publication US11045448B2, “Piperidines as covalent menin inhibitors” (THE REGENTS OF THE UNIVERSITY OF MICHIGAN, priority 2017, dated 2021):

target: menin protein (Homo sapiens (Human), UniProt O00255); assay: Fluorescence polarization (FP) competitive binding assay, menin binding affinity; settings: menin protein 4 nM, probe 2 nM, room temperature 30 minutes
Description: A fluorescence polarization (FP) competitive binding assay was used to determine the binding affinities of representative menin inhibitors. A FAM labeled fluorescent probe was designed and synthesized based on a MLL1 peptide (FAM-MM2). Equilibrium dissociation constant (Kd) value of FAM-MM2 to menin protein was determined from protein saturation experiments by monitoring the total fluorescence polarization of mixtures composed with the fluorescent probe at a fixed concentration and the protein with increasing concentrations up to full saturation. Serial dilutions of the protein were mixed with FAM-MM2 to a final volume of 200 μl in the assay buffer (PBS with 0.02% Bovine γ-Globulin and 4% DMSO. 0.01% Triton X-100 was added right before assays). Final FAM-MM2 concentration was 2 nM. Plates were incubated at room temperature for 30 minutes with gentle shaking to assure equilibrium. FP values in millipolarization units (mP) were measured using the Infinite M-1000 plate reader (Tecan U.S., Research Triangle Park, N.C.) in Microfluor 1 96-well, black, v-bottom plates (Thermo Scientific, Waltham, Mass.) at an excitation wavelength of 485 nm and an emission wavelength of 530 nm.
The IC50, see Table 3, of representative Compounds of the Disclosure were determined in a competitive binding experiment. Mixtures of 5 μl of the tested compounds in DMSO and 195 μl of preincubated protein/probe complex solution in the assay buffer were added into assay plates which were incubated at room temperature for 30 minutes with gentle shaking. Final concentration of the menin protein was 4 nM, and final probe concentration is 2 nM. Negative controls containing protein/probe complex only (equivalent to 0% inhibition), and positive controls containing only free probes (equivalent to 100% inhibition), were included in each assay plate. FP values were measured as described above. IC50 values were determined by nonlinear regression fitting of the competition curves.

Sequence of menin protein (O00255 whole entry): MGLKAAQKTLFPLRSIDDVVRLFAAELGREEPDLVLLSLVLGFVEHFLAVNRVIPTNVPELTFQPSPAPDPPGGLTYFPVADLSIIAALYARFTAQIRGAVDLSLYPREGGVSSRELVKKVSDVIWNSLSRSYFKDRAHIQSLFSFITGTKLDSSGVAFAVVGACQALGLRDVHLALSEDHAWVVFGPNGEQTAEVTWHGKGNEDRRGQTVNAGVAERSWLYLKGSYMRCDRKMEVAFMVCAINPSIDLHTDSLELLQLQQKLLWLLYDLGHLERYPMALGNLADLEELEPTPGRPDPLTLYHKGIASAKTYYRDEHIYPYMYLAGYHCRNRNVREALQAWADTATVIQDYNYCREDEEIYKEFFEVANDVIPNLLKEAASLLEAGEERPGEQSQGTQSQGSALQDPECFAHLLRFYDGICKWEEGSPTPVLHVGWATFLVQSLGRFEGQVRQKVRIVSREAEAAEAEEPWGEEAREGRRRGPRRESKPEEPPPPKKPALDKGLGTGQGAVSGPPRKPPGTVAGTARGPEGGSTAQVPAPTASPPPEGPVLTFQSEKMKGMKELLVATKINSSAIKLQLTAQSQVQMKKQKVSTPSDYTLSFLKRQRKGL

First: COC(=O)N[C@H]1CCC[C@@H]1[C@](C#N)(c1cccc(F)c1)C1CCN(CC2CN(c3ccc(S(=O)(=O)c4cccc(NC(=O)/C=C/CN5CCOCC5)c4)cc3)C2)CC1 [Cpd. No. 58, methyl ((1S,2R)-2-((S)-cyano(3-fluorophenyl)(1-((1-(4-((3-((E)-4-morpholinobut-2-enamido)phenyl)sulfonyl)phenyl)azetidin-3-yl)methyl)piperidin-4-yl)methyl)cyclopentyl)carbamate]
Second: C=CC(=O)Nc1cccc(S(=O)(=O)c2ccc(N3CC(F)(CN4CCC([C@@](C#N)(c5cccc(F)c5)[C@H]5CCC[C@@H]5NC(=O)OC)CC4)C3)cc2)c1 [Cpd. No. 12, methyl ((1S,2R)-2-((S)-(1-((1-(4-((3-acrylamidophenyl)sulfonyl)phenyl)-3-fluoroazetidin-3-yl)methyl)piperidin-4-yl)(cyano)(3-fluorophenyl)methyl)cyclopentyl)carbamate]
The IC50 of the first is 8.4-fold lower: 0.005 µM for the first, 0.042 µM for the second.

Compared with `COC(=O)N[C@H]1CCC[C@@H]1[C@](C#N)(c1cccc(F)c1)C1CCN(CC2(F)CN(c3ccc(S(=O)(=O)C4CN(C(=O)/C=C/CN(C)C)C4)cc3)C2)CC1` [Cpd. No. 69, methyl ((1S,2R)-2-((S)-cyano(1-((1-(4-((1-((E)-4-(dimethylamino)but-2-enoyl)azetidin-3-yl)sulfonyl)phenyl)-3-fluoroazetidin-3-yl)methyl)piperidin-4-yl)(3-fluorophenyl)methyl)cyclopentyl)carbamate], `C=CC(=O)N1CC(S(=O)(=O)c2ccc(N3CC(F)(CN4CCC([C@@](C#N)(c5cccc(F)c5)[C@H]5CCC[C@@H]5NC(=O)OC)CC4)C3)cc2)C1` [Cpd. No. 13, methyl ((1S,2R)-2-((S)-(1-((1-(4-((1-acryloylazetidin-3-yl)sulfonyl)phenyl)-3-fluoroazetidin-3-yl)methyl)piperidin-4-yl)(cyano)(3-fluorophenyl)methyl)cyclopentyl)carbamate] is 2.7-fold higher in IC50: 0.009 µM for the first, 0.024 µM for the second. The first is the more potent here.

First: C=CC(=O)N1CC(S(=O)(=O)c2ccc(N3CC(CN4CCC([C@](C#N)(c5cccc(F)c5)[C@H]5CCC[C@@H]5OC(=O)NC)CC4)C3)cc2)C1 [Cpd. No. 2, (1S,2R)-2-((R)-(1-((1-(4-((1-acryloylazetidin-3-yl)sulfonyl)phenyl)azetidin-3-yl)methyl)piperidin-4-yl)(cyano)(3-fluorophenyl)methyl)cyclopentyl methylcarbamate]
Second: C/C=C/C(=O)N1CC(S(=O)(=O)c2ccc(N3CC(CN4CCC([C@@](C#N)(c5cccc(F)c5)[C@H]5CCC[C@@H]5NC(=O)OC)CC4)C3)cc2)C1 [Cpd. No. 56, methyl ((1S,2R)-2-((S)-(1-((1-(4-((1-((E)-but-2-enoyl)azetidin-3-yl)sulfonyl)phenyl)azetidin-3-yl)methyl)piperidin-4-yl)(cyano)(3-fluorophenyl)methyl)cyclopentyl)carbamate]
The IC50 of the first is 75-fold higher: 0.374 µM for the first, 0.005 µM for the second. The second is the more potent here.

Compared with `C=CC(=O)N1CC(S(=O)(=O)c2ccc(OCCOc3ccc([C@@](C#N)(c4cccc(F)c4)[C@H]4CCC[C@@H]4NC(=O)OC)cc3)cc2)C1` [Cpd. No. 64, methyl ((1S,2R)-2-((R)-(4-(2-(4-((1-acryloylazetidin-3-yl)sulfonyl)phenoxy)ethoxy)phenyl)(cyano)(3-fluorophenyl)methyl)cyclopentyl)carbamate], `C=CC(=O)Nc1ccc(S(=O)(=O)c2ccc(N3CC(CN4CCC([C@](C#N)(c5cccc(F)c5)[C@H]5CCC[C@@H]5OC(=O)NC)CC4)C3)cc2)cc1` [Cpd. No. 11, (1S,2R)-2-((R)-(1-((1-(4-((4-acrylamidophenyl)sulfonyl)phenyl)azetidin-3-yl)methyl)piperidin-4-yl)(cyano)(3-fluorophenyl)methyl)cyclopentyl methylcarbamate] is lower in IC50: greater than 10 µM for the first, 2.2 µM for the second.
